Data published in US20060263802A1 (priority 2003, published 2006).

Key:
Assay type in all cases: binding
[1] = system: human monoclonal antibody CR57
[2] = system: human monoclonal antibody CRJB
[3] = system: human monoclonal antibody CRJA
[4] = system: human monoclonal antibody CRJB; remark: listed apart in the source
[5] = system: human monoclonal antibody CR57; remark: listed apart in the source
[6] = system: human monoclonal antibody CRJA; remark: listed apart in the source

Sequence | Binding of CR57 to linear peptide (PEPSCAN-ELISA signal) [1] | Binding of CRJB to linear peptide (PEPSCAN-ELISA signal) [2] | Binding of CRJA to linear peptide (PEPSCAN-ELISA signal) [3] | Binding of CRJB (10 μg/ml) to looped/cyclic peptide (PEPSCAN-ELISA signal) [4] | Binding of CR57 (10 μg/ml) to looped/cyclic peptide (PEPSCAN-ELISA signal) [5] | Binding of CRJA (10 μg/ml) to looped/cyclic peptide (PEPSCAN-ELISA signal) [6] | Binding of CRJB (10 μg/ml) to looped/cyclic peptide (PEPSCAN-ELISA) [4] | Binding of CR57 (10 μg/ml) to looped/cyclic peptide (PEPSCAN-ELISA) [5] | Binding of CRJA (10 μg/ml) to looped/cyclic peptide (PEPSCAN-ELISA) [6] | Binding of human monoclonal antibody CR57 to linear peptide (PEPSCAN-ELISA signal) [1] | Binding of human monoclonal antibody CRJB to linear peptide (PEPSCAN-ELISA signal) [2] | Binding of human monoclonal antibody CRJA to linear peptide (PEPSCAN-ELISA signal) [3] | Binding of CRJB to looped/cyclic peptide (PEPSCAN-ELISA signal) [4] | Binding of CR57 to looped/cyclic peptide (PEPSCAN-ELISA signal) [5] | Binding of CRJA to looped/cyclic peptide (PEPSCAN-ELISA signal) [6] | binding of antibody CRJA to looped/cyclic peptide (PEPSCAN OD) [6]
CTNLSGFSYMELKVG | 47 | 110 | 84 | 96 | 70 | 79 | – | – | – | – | – | – | – | – | – | –
LSHLRKLVPGFGKAY | 96 | 139 | 93 | – | – | – | 123 | 121 | 93 | – | – | – | – | – | – | –
KVGYILAIKMNGFTC | 78 | 118 | 83 | 64 | 96 | 71 | – | – | – | – | – | – | – | – | – | –
FKDGDEAEDFVEVHL | – | – | – | – | – | – | – | – | – | 65 | 76 | 85 | 80 | 106 | 97 | –
VFKDGDEAEDFVEVH | – | – | – | – | – | – | – | – | – | 100 | 106 | 125 | 125 | 168 | 104 | –
AMQTSNETKWCPPDQ | 104 | 114 | 85 | – | – | – | 58 | 84 | 90 | – | – | – | – | – | – | –
KMAGDPRYEESLHNP | 62 | 102 | 48 | 45 | 49 | 38 | – | – | – | – | – | – | – | – | – | –
QLVNLHDFRSDEIEH | 60 | 113 | 89 | – | – | – | 44 | 47 | 66 | – | – | – | – | – | – | –
FVDERGLYKSLKGAC | 86 | 121 | 116 | – | – | – | 79 | 97 | 92 | – | – | – | – | – | – | –
LESSVIPLVHPLADP | 90 | 128 | 110 | – | – | – | 128 | 120 | 114 | – | – | – | – | – | – | –
DYTIWMPENPRLGMS | 93 | 127 | 106 | 66 | 83 | 86 | – | – | – | – | – | – | – | – | – | –
YTIFNKTLMEADAHY | 104 | 147 | 90 | – | – | – | 79 | 119 | 108 | – | – | – | – | – | – | –
IKMNGFTCTGVVTEA | 68 | 108 | 88 | 86 | 93 | 99 | – | – | – | – | – | – | – | – | – | –
SFRRLSHLRKLVPGF | 92 | 110 | 75 | – | – | – | 87 | 143 | 320 | – | – | – | – | – | – | clearly bound
PDVHNQVSGVDLGLP | – | – | – | – | – | – | – | – | – | 106 | 129 | 107 | 104 | 106 | 115 | –
HVNGVFFNGIILGPD | 97 | 123 | 108 | – | – | – | 92 | 97 | 105 | – | – | – | – | – | – | –
CPPDQLVNLHDFRSD | 93 | 137 | 115 | – | – | – | 123 | 137 | 92 | – | – | – | – | – | – | –
YKSVRTWNEILPSKG | 66 | 137 | 113 | – | – | – | 94 | 117 | 132 | – | – | – | – | – | – | –
LVVEELVRKREECLD | 64 | 100 | 65 | – | – | – | 76 | 68 | 50 | – | – | – | – | – | – | –
IPLVHPLADPSTVFK | 96 | 156 | 130 | – | – | – | 107 | 99 | 106 | – | – | – | – | – | – | –
CDIFTNSRGKRASKG | 42 | 104 | 133 | 90 | 1 | 101 | – | – | – | – | – | – | – | – | – | –
KLVPGFGKAYTIFNK | 47 | 114 | 73 | – | – | – | 71 | 54 | 71 | – | – | – | – | – | – | –
PSVADLDPYDRSLHS | 44 | 114 | 72 | 33 | 57 | 62 | – | – | – | – | – | – | – | – | – | –
YNWKMAGDPRYEESL | 83 | 118 | 110 | 89 | 89 | 98 | – | – | – | – | – | – | – | – | – | –
